Data from US11891362B1, “N2,N4-disubstituted pyrimidine-2,4-diamine compounds as antibacterial agents” (KING FAISAL UNIVERSITY, priority 2023, dated 2024).
≈ marks a conversion by molar mass, not a printed value. Where two headings read alike, the source gives them in different places.

How the values were obtained:
[1] = test system: Klebsiella pneumonia MTCC 618; experiment: In vitro antibacterial activity, dilution susceptibility test (CLSI M07-A10); format: cell-based; conditions: Klebsiella pneumoniae, MTCC618
Source text: (§1) Enterococcus faecium resistant to VRE, and Gram-negative organisms including Klebsiella pneumonia, Escherichia coli, Pseudomonas aeruginosa.

[2] = test system: Pseudomonas aeruginosa MTCC 741; experiment: as above; format: cell-based; conditions: MTCC741
Source text: as §1

[3] = test system: Staphylococcus epidermidis; experiment: as above; format: cell-based
Source text: as §1

[4] = test system: Enterococcus faecium ATCC 35667; experiment: as above; format: cell-based; conditions: ATCC35667
Source text: as §1

[5] = test system: Staphylococcus aureus ATCC BAA-1556 (MERSA resistant); experiment: as above; format: cell-based; conditions: ATCCBAA1556
Source text: as §1

[6] = test system: Bacillus subtilis MTCC 441; experiment: as above; format: cell-based; conditions: MTCC441
Source text: as §1

[7] = test system: Escherichia coli MTCC 443; experiment: as above; format: cell-based; conditions: MTCC443
Source text: as §1

[8] = test system: Staphylococcus aureus ATCC 29213; experiment: as above; format: cell-based; conditions: ATCC29213
Source text: as §1

[9] = test system: Enterococcus faecium ATCC 51559 (VRE resistant); experiment: as above; format: cell-based
Source text: as §1

[10] = molecular target: T1, DNA gyrase from E. coli (Escherichia coli, UniProt P0AES4+P0AES6); experiment: Inhibitory activities on E. coli DNA gyrase (Inspiralis assay); format: biochemical
T1 construct: purchased Inspiralis
Description: First, the plates were rehydrated with buffer (20 mM Tris-HCl with pH 7.6, 0.01% w/v BSA, 0.05% v/v Tween 20, 137 mM NaCl) and the biotinylated oligonucleotide was then immobilized. After washing off the unbound oligonucleotide, the enzyme test was performed. The reaction volume of 30 μL in buffer (35 mM Tris×HCl with pH 7.5, 4 mM MgCl2, 24 mM KCl, 2 mM DTT, 1.8 mM spermidine, 1 mM ATP, 6.5% w/v glycerol, 0.1 mg/mL albumin) contained 1.5 U of DNA gyrase from E. coli, 0.75 μg of relaxed pNO1 plasmid, and 3 μL solution of the inhibitor in 10% DMSO and 0.008% Tween 20. Reaction solutions were incubated at 37° C. for 30 min. After that, the TF buffer (50 mM NaOAc with pH 5.0, 50 mM NaCl and 50 mM MgCl2) was added to terminate the enzymatic reaction. After additional incubation for 30 min at rt, during which biotinoligonucleotide-plasmid triplex was formed, the unbound plasmid was washed off using TF buffer and SybrGOLD in T10 buffer (10 mM Tris HCl with pH 8.0 and 1 mM EDTA) was added. The fluorescence was measured with a microplate reader (BioTek Synergy H4, excitation: 485 nm, emission: 535 nm). Initial screening was done at 100 or 10 μM concentration of inhibitors. […] GraphPad Prism software was used to calculate the IC50 values. The result is given as the average value of three independent measurements.

[11] = test system: Mycobacterium tuberculosis H37Rv strain; experiment: Anti-tubercular properties, alamar blue microplate assay; format: cell-based; conditions: 168 h, seven days incubation, read-out: anti-mycobacterial activity (MIC)

T1 sequence (P0AES4 whole entry, one chain of several): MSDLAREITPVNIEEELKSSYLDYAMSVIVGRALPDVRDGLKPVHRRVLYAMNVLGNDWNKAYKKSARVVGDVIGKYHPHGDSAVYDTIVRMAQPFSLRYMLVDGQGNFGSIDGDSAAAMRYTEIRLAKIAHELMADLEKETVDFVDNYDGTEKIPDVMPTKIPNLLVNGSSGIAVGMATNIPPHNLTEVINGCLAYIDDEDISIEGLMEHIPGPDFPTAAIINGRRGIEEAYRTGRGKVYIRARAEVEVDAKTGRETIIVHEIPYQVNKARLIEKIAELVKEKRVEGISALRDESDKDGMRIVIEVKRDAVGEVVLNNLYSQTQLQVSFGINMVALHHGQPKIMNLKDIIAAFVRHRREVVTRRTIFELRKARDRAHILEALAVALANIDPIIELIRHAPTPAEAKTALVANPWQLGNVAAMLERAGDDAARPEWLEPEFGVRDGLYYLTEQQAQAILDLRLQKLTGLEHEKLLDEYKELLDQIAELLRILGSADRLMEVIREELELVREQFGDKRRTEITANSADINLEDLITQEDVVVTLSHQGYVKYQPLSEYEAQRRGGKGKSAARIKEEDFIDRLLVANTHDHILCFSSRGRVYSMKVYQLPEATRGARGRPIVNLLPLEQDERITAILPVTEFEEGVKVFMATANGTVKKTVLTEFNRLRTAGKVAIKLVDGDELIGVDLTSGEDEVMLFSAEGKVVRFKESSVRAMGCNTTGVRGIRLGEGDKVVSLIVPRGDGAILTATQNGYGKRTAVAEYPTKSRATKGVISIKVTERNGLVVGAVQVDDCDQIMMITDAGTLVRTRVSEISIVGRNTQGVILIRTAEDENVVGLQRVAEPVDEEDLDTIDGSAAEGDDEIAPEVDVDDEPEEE

Compound | MIC ([1]; Klebsiella pneumonia MTCC 618, read-out: MIC) | MIC ([2]; Pseudomonas aeruginosa MTCC 741, read-out: MIC) | MIC [3] | MIC [4] | MIC [5] | MIC [6] | MIC [7] | MIC [8] | MIC [9] | IC50 [10] | MIC [11] | MIC [1] | MIC ([2]; Pseudomonas aeruginosa)
CC(=O)Nc1cccc(Nc2nccc(Nc3ccc(C(=O)O)cc3CN(C)C3CCCCC3)n2)c1 [Compound 7, 4-((2-((3-acetamidophenyl)amino)pyrimidin-4-yl)amino)-3-((cyclohexyl(methyl)amino)methyl)benzoic acid] | 4 µg/mL (≈ 8.19 µM) | 4 µg/mL (≈ 8.19 µM) | 8 µg/mL (≈ 16.4 µM) | 4 µg/mL (≈ 8.19 µM) | 8 µg/mL (≈ 16.4 µM) | 4 µg/mL (≈ 8.19 µM) | 8 µg/mL (≈ 16.4 µM) | 8 µg/mL (≈ 16.4 µM) | 16 µg/mL (≈ 32.7 µM) | 250 nM | 16 µg/mL (≈ 32.7 µM) | – | –
CN[C@H](CC(C)C)C(=O)N[C@H]1C(=O)N[C@@H](CC(N)=O)C(=O)N[C@H]2C(=O)N[C@H]3C(=O)N[C@H](C(=O)N[C@H](C(=O)O)c4cc(O)cc(O)c4-c4cc3ccc4O)[C@H](O)c3ccc(c(Cl)c3)Oc3cc2cc(c3O[C@@H]2O[C@H](CO)[C@@H](O)[C@H](O)[C@H]2O[C@H]2C[C@](C)(N)[C@H](O)[C@H](C)O2)Oc2ccc(cc2Cl)[C@H]1O [Vancomycin, reference compound] | – | – | – | – | – | – | – | – | – | – | – | > 128 µg/mL | > 128 µg/mL
